Source: patent publication US8883789B2, “Piperazine derivatives and their use as positive allosteric modulators of mGluR5 receptors” (Boehringer Ingelheim International GmbH, priority 2011, dated 2014)

Target: T1, human recombinant mGluR5 (Homo sapiens, UniProt P41594)
T1 construct: expressed in transfected cells; hygromycin and geneticin selection
Assay: positive modulation of mGluR5, calcium based FLIPR assay
Details: HEK 293 cell line expressing human recombinant mGluR5; Ca2+ peak height after glutamate at approximately 5% basal stimulation; nonlinear regression
Method in brief: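 HEK293 cells with tetracycline-free induction, Calcium-4 dye-loaded in Ringer pH 7.4. Compound added 5 min before glutamate at ~5% of maximal effect, 1% DMSO. EC50 from peak Ca2+ fluorescence, normalized to basal glutamate (100%) and 10 μM CDPPB (200%), via nonlinear regression.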

T1 sequence (P41594 21-1212): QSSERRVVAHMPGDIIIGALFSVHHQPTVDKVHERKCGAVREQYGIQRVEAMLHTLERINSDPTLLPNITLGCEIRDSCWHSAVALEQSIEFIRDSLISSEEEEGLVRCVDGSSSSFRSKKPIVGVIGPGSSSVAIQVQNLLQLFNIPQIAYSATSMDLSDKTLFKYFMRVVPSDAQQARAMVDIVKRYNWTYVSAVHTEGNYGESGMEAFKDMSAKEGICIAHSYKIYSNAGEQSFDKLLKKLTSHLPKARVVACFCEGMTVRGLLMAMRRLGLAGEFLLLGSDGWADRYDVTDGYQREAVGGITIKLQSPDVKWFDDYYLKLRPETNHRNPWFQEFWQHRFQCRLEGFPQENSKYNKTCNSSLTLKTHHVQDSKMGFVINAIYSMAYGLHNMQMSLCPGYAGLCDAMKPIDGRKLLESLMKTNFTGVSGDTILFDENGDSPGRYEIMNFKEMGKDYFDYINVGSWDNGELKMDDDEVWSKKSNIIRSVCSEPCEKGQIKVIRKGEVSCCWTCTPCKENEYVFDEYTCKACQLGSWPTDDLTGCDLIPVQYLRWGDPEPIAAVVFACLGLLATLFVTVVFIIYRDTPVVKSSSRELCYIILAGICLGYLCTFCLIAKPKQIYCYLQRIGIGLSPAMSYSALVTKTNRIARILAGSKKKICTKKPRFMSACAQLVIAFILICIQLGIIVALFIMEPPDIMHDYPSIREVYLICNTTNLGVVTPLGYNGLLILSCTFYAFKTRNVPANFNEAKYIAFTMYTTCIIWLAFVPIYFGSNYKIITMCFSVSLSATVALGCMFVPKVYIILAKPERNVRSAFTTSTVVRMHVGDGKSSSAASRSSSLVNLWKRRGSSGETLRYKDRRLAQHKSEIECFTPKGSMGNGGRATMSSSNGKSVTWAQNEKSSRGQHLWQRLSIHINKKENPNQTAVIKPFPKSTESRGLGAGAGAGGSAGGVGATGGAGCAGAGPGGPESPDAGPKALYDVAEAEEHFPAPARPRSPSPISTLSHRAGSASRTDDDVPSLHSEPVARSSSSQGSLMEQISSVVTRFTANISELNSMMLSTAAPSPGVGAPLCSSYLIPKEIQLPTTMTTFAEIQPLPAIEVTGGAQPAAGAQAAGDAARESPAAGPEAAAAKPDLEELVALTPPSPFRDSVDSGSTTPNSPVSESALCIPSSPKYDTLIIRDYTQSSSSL

EC50 | Structure (SMILES)
886 nM | COc1cccc(C(=O)N2CCN(C(=O)c3ncn(-c4cccc(C)c4)n3)C[C@H]2C)n1 [Example 251, (R)-(6-Methoxy-pyridin-2-yl)-[2-methyl-4-(1-m-tolyl-1H-[1,2,4]-triazole-3-carbonyl)-piperazin-1-yl]-methanone]
278 nM | COc1cccc(C(=O)N2CCN(C(=O)c3ncn(-c4cccc(Cl)c4)n3)C[C@@H]2C)n1 [Example 252, (S)-{4-[1-(3-Chloro-phenyl)-1H-[1,2,4]triazole-3-carbonyl]-2-methyl-piperazin-1-yl}-(6-methoxy-pyridin-2-yl)-methanone]
336 nM | Cc1c(C(=O)N2CCN(C(=O)c3ncn(-c4cccc(Cl)c4)n3)C[C@@H]2C)oc2ccc(F)cc12 [Example 253]
157 nM | C[C@H]1CN(C(=O)c2ncn(-c3cccc(Cl)c3)n2)CCN1C(=O)c1cc(Br)c(Br)o1 [Example 254]
152 nM | Cc1cccc(-n2cnc(C(=O)N3CCN(C(=O)c4cc(Br)c(Br)o4)[C@@H](C)C3)n2)c1 [Example 255, (S)-[4-(4,5-Dibromo-furan-2-carbonyl)-3-methyl-piperazin-1-yl]-(1-m-tolyl-1H-[1,2,4]triazol-3-yl)-methanone]
205 nM | C[C@H]1CN(C(=O)c2ncn(-c3cccc(F)c3)n2)CCN1C(=O)c1cc(Br)c(Br)o1 [Example 256, (S)-[4-(4,5-Dibromo-furan-2-carbonyl)-3-methyl-piperazin-1-yl]-[1-(3-fluoro-phenyl)-1H-[1,2,4]triazol-3-yl]-methanone]
1100 nM | COc1cccc(C(=O)N2CCN(C(=O)c3ncn(-c4cccc(Cl)c4)n3)CC2(C)C)n1 [Example 257, {4-[1-(3-Chloro-phenyl)-1H-[1,2,4]triazole-3-carbonyl]-2,2-dimethyl-piperazin-1-yl}-(6-methoxy-pyridin-2-yl)-methanone]
172 nM | CCC1CN(C(=O)c2ncn(-c3cccc(Cl)c3)n2)CCN1C(=O)c1cccc(OC)n1 (stereo not shown) [Example 258, {4-[1-(3-Chloro-phenyl)-1H-[1,2,4]triazole-3-carbonyl]-2-ethyl-piperazin-1-yl}-(6-methoxy-pyridin-2-yl)-methanone]
231 nM | CCC1CN(C(=O)c2ncn(-c3cccc(F)c3)n2)CCN1C(=O)c1cccc(OC)n1 (stereo not shown) [Example 259]
153 nM | CCC1CN(C(=O)c2ncn(-c3cccc(F)c3)n2)CCN1C(=O)c1cc(Br)c(Br)o1 (stereo not shown) [Example 260]
168 nM | CCC[C@H]1CN(C(=O)c2ncn(-c3cccc(F)c3)n2)CCN1C(=O)c1cccc(OC)n1 [Example 261, (S)-{4-[1-(3-Fluoro-phenyl)-1H-[1,2,4]triazole-3-carbonyl]-2-propyl-piperazin-1-yl}-(6-methoxy-pyridin-2-yl)-methanone]
193 nM | CCC[C@H]1CN(C(=O)c2ncn(-c3cccc(F)c3)n2)CCN1C(=O)c1cc(Br)c(Br)o1 [Example 262]
251 nM | COc1cccc(C(=O)N2[C@H](C)CN(C(=O)c3ncn(-c4cccc(C)c4)n3)C[C@@H]2C)n1 [Example 263, (2R*,6S*)-1-[(6-Methoxypyridin-2-yl)carbonyl]-2,6-dimethyl-4-{[1-(3-methylphenyl)-1H-[1,2,4]-triazol-3-yl]carbonyl}piperazine]
891 nM | Cc1cccc(-n2cnc(C(=O)N3C[C@@H](C)N(C(=O)c4oc5ccc(Cl)cc5c4C)[C@@H](C)C3)n2)c1 [Example 264]
194 nM | COc1cccc(C(=O)N2CCN(C(=O)c3ncn(-c4cccc(Cl)c4)n3)C(C)C2)n1 (stereo not shown) [Example 265, {4-[1-(3-Chloro-phenyl)-1H-[1,2,4]-triazole-3-carbonyl]-3-methyl-piperazin-1-yl}-(6-methoxy-pyridin-2-yl)-methanone]
538 nM | CC1CN(C(=O)c2cc(Br)c(Br)o2)CCN1C(=O)c1ncn(-c2cccc(Cl)c2)n1 (stereo not shown) [Example 266]
558 nM | CC1CN(C(=O)c2cc3ccccc3o2)CCN1C(=O)c1ncn(-c2cccc(Cl)c2)n1 (stereo not shown) [Example 267]
327 nM | CC1CN(C(=O)c2cc3c(Cl)cccc3s2)CCN1C(=O)c1ncn(-c2cccc(Cl)c2)n1 (stereo not shown) [Example 268]
447 nM | CC1CN(C(=O)c2cccc(-c3ccn(C)n3)c2)CCN1C(=O)c1ncn(-c2cccc(Cl)c2)n1 (stereo not shown) [Example 269]
677 nM | CC1CN(C(=O)c2cccc(-c3nccs3)c2)CCN1C(=O)c1ncn(-c2cccc(Cl)c2)n1 (stereo not shown) [Example 270]
621 nM | CC1CN(C(=O)c2sc3ccccc3c2Cl)CCN1C(=O)c1ncn(-c2cccc(Cl)c2)n1 (stereo not shown) [Example 271]
350 nM | CC1CN(C(=O)c2ccc3ccn(C)c3c2)CCN1C(=O)c1ncn(-c2cccc(Cl)c2)n1 (stereo not shown) [Example 272]
1320 nM | CC1CN(C(=O)c2ccc(Cl)s2)CCN1C(=O)c1ncn(-c2cccc(Cl)c2)n1 (stereo not shown) [Example 273]
810 nM | COCc1c(C(=O)N2CCN(C(=O)c3ncn(-c4cccc(Cl)c4)n3)C(C)C2)oc2ccccc12 (stereo not shown) [Example 274]
170 nM | Cc1oc2ccccc2c1C(=O)N1CCN(C(=O)c2ncn(-c3cccc(Cl)c3)n2)C(C)C1 (stereo not shown) [Example 275]
264 nM | CC1CN(C(=O)c2cn(C)c3ccccc23)CCN1C(=O)c1ncn(-c2cccc(Cl)c2)n1 (stereo not shown) [Example 276]
507 nM | COc1cc(C(=O)N2CCN(C(=O)c3ncn(-c4cccc(Cl)c4)n3)C(C)C2)ccc1C (stereo not shown) [Example 277]
929 nM | COc1ccc2c(C)c(C(=O)N3CCN(C(=O)c4ncn(-c5cccc(Cl)c5)n4)C(C)C3)oc2c1 (stereo not shown) [Example 278]

EC50 | Structure (SMILES)
530 nM | Cc1c(C(=O)N2CCN(C(=O)c3ncn(-c4cccc(Cl)c4)n3)C(C)C2)oc2ccccc12 (stereo not shown) [Example 279]
476 nM | COc1cc(OC)cc(C(=O)N2CCN(C(=O)c3ncn(-c4cccc(Cl)c4)n3)C(C)C2)c1 (stereo not shown) [Example 280]
1500 nM | Cc1ccc2oc(C(=O)N3CCN(C(=O)c4ncn(-c5cccc(Cl)c5)n4)C(C)C3)c(C)c2c1 (stereo not shown) [Example 281]
597 nM | CC(C)COc1cccc(C(=O)N2CCN(C(=O)c3ncn(-c4cccc(Cl)c4)n3)C(C)C2)c1 (stereo not shown) [Example 282]
233 nM | CC1CN(C(=O)c2cc(Cl)c3c(c2)OCCO3)CCN1C(=O)c1ncn(-c2cccc(Cl)c2)n1 (stereo not shown) [Example 283]
858 nM | Cc1c(C(=O)N2CCN(C(=O)c3ncn(-c4cccc(Cl)c4)n3)C(C)C2)oc2c(F)cccc12 (stereo not shown) [Example 284]
746 nM | CCCOc1cccc(C(=O)N2CCN(C(=O)c3ncn(-c4cccc(Cl)c4)n3)C(C)C2)c1 (stereo not shown) [Example 285]
1330 nM | CC1CN(C(=O)c2cccc3c2OCO3)CCN1C(=O)c1ncn(-c2cccc(Cl)c2)n1 (stereo not shown) [Example 286]
242 nM | COc1ccc2oc(C)c(C(=O)N3CCN(C(=O)c4ncn(-c5cccc(F)c5)n4)C(C)C3)c2c1 (stereo not shown) [Example 287]
372 nM | COc1cc(C(=O)N2CCN(C(=O)c3ncn(-c4cccc(C)c4)n3)C(C)C2)ccc1C (stereo not shown) [Example 288]
487 nM | Cc1cccc(-n2cnc(C(=O)N3CCN(C(=O)c4cc(Cl)c5c(c4)OCCO5)CC3C)n2)c1 (stereo not shown) [Example 289]
272 nM | COc1ccc2oc(C)c(C(=O)N3CCN(C(=O)c4ncn(-c5cccc(C)c5)n4)C(C)C3)c2c1 (stereo not shown) [Example 290]
47 nM | COc1ccc2oc(C)c(C(=O)N3CCN(C(=O)c4ncn(-c5ccccc5)n4)C(C)C3)c2c1 (stereo not shown) [Example 291]
1210 nM | COc1cc(C(=O)N2CCN(C(=O)c3ncn(-c4ccccc4)n3)C(C)C2)ccc1C (stereo not shown) [Example 292]
361 nM | CC1CN(C(=O)c2cc3c(Cl)cccc3s2)CCN1C(=O)c1ncn(-c2ccccc2)n1 (stereo not shown) [Example 293]
1080 nM | Cc1c(C(=O)N2CCN(C(=O)c3ncn(-c4ccccc4)n3)C(C)C2)oc2ccc(F)cc12 (stereo not shown) [Example 294]
95 nM | Cc1oc2ccccc2c1C(=O)N1CCN(C(=O)c2ncn(-c3ccccc3)n2)C(C)C1 (stereo not shown) [Example 295]
269 nM | COc1cccc(C(=O)N2CCN(C(=O)c3ncn(-c4cccc(C)c4)n3)C(C)C2)n1 (stereo not shown) [Example 296, [4-(6-Methoxy-pyridine-2-carbonyl)-2-methyl-piperazin-1-yl]-(1-m-tolyl-1H-[1,2,4]-triazol-3-yl)-methanone]
411 nM | COc1cccc(C(=O)N2CCN(C(=O)c3ncn(-c4cccc(F)c4)n3)C(C)C2)n1 (stereo not shown) [Example 297]
619 nM | COc1cccc(C(=O)N2CCN(C(=O)c3ncn(-c4ccccc4)n3)C(C)C2)n1 (stereo not shown) [Example 298]
376 nM | COc1cccc(C(=O)N2CCN(C(=O)c3ncn(-c4cccc(Br)c4)n3)C(C)C2)n1 (stereo not shown) [Example 299]
154 nM | COc1cccc(C(=O)N2CCN(C(=O)c3ncn(-c4cccc(Cl)c4)n3)[C@@H](C)C2)n1 [Example 300, (S)-{4-[1-(3-Chloro-phenyl)-1H-[1,2,4]triazole-3-carbonyl]-3-methyl-piperazin-1-yl}-(6-methoxy-pyridin-2-yl)-methanone]
162 nM | COc1cccc(C(=O)N2CCN(C(=O)c3ncn(-c4cccc(Cl)c4)n3)[C@H](C)C2)n1 [Example 301, (R)-{4-[1-(3-Chloro-phenyl)-1H-[1,2,4]triazole-3-carbonyl]-3-methyl-piperazin-1-yl}-(6-methoxy-pyridin-2-yl)-methanone]
166 nM | COc1cccc(C(=O)N2C[C@@H](C)N(C(=O)c3ncn(-c4cccc(C)c4)n3)[C@@H](C)C2)n1 [Example 302, (2R*,6S*)-4-[(6-methoxypyridin-2-yl)carbonyl]-2,6-dimethyl-1-{[1-(3-methylphenyl)-1H-1,2,4-triazol-3-yl]carbonyl}piperazine]
215 nM | COc1cccc(C(=O)N2C[C@@H](C)N(C(=O)c3ncn(-c4cccc(F)c4)n3)[C@@H](C)C2)n1 [Example 303]
845 nM | COc1cccc(C(=O)N2CCN(C(=O)c3ncn(-c4cccc(F)c4)n3)C3(CC3)C2)n1 [Example 304, {4-[1-(3-Fluoro-phenyl)-1H-[1,2,4]-triazole-3-carbonyl]-4,7-diaza-spiro[2.5]oct-7-yl}-(6-methoxy-pyridin-2-yl)-methanone]
503 nM | O=C(c1cc(Br)c(Br)o1)N1CCN(C(=O)c2ncn(-c3cccc(F)c3)n2)C2(CC2)C1 [Example 305]
